According to patent US20260234180A1, “AMINO ACID DERIVATIVE, PREPARATION METHOD THEREFOR, AND PHARMACEUTICAL COMPOSITION FOR TREATING HEPATITIS, COMPRISING SAME” (priority 2021, published 2026):

Biological target: T1, NTCP (Na+ taurocholate cotransporting peptide), HepG2-hNTCP-C4 cell line (Homo sapiens, UniProt Q14973)
T1 construct: expressed in transfected cells; host or cells: HepG2-hNTCP-C4 (HepG2 cells expressing human NTCP)
T1 sequence (Q14973 1-349): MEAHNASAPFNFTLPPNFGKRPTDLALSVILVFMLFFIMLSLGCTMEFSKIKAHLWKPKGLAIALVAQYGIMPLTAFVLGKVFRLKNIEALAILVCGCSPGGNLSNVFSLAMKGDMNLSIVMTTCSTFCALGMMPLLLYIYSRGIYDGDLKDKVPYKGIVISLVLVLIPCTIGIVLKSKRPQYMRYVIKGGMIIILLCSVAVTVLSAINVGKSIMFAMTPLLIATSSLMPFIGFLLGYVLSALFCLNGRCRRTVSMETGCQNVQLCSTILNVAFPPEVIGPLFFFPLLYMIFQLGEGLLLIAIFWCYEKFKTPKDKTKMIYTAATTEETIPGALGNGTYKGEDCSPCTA
Assay: Inhibition of binding between FITC-labelled PreS1 and NTCP expressing cell line, flow cytometry
Details: for effect of inhibiting the binding between PreS1 and NTCP expressing cell lines by treatment concentration: 0.2 μM, 2 μM, 10 μM, 50 μM; for effect of inhibiting the binding between PreS1 and NTCP expressing cell lines by treatment concentration / ability to inhibit the binding between PreS1 and NTCP expressing cell lines (bile acid series): 20 nM PreS1; for ability to inhibit the binding between PreS1 and NTCP expressing cell lines (bile acid series) / relative fluorescence intensity compared to Comparative Example 1 (LCA): compound 50 µM; for relative fluorescence intensity compared to Comparative Example 1 (LCA): 20 nM PreS1, 4° C., 2 hours, lower = more inhibited binding
Method in brief: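 HepG2-hNTCP-C4 cells were pre-chilled at 4 °C for 30 min, then exposed to 20 nM Myr-PreS1-Lys(FITC) plus compound at 4 °C for 2 h, mostly at 50 μM, with some series at 0.2–50 μM or 2–50 μM. After washes and EDTA detachment, cell-bound green fluorescence was read by flow cytometry.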

Row | SMILES | effect of inhibiting the binding between PreS1 and NTCP expressing cell lines by treatment concentration | ability to inhibit the binding between PreS1 and NTCP expressing cell lines (bile acid series) | relative fluorescence intensity compared to Comparative Example 1 (LCA)
1 | CC(C)[C@H](NC(=O)CC[C@@H](C)[C@H]1CC[C@H]2[C@@H]3CC[C@@H]4C[C@H](O)CC[C@]4(C)[C@H]3CC[C@]12C)C(=O)O [Example 44, (S)-2-((R)-4-((3R,5R,8R,9S,10S,13R,14S,17R)-3-hydroxy-10,13-dimethyl-hexadecahydro-1H-cyclopenta[a]phenanthren-17-yl)pentanamido)-3-methylbutanoic acid] | concentration dependent | relatively excellent | low and lower
2 | CC[C@@H](C)[C@H](NC(=O)CC[C@@H](C)[C@H]1CC[C@H]2[C@@H]3[C@@H](O)C[C@@H]4C[C@H](O)CC[C@]4(C)[C@H]3CC[C@]12C)C(=O)O [Example 2, (2S,3R)-2-((R)-4-((3R,5S,7S,8R,9S,10S,13R,14S,17R)-3,7-dihydroxy-10,13-dimethyl-hexadecahydro-1H-cyclopenta[a]phenanthren-17-yl)pentanamido)-3-methylpentanoic acid] |  | relatively excellent | 
3 | CC[C@@H](C)[C@H](NC(=O)CC[C@@H](C)[C@H]1CC[C@H]2[C@@H]3CC[C@@H]4C[C@H](O)CC[C@]4(C)[C@H]3C[C@H](O)[C@]12C)C(=O)O [Example 10, (2S,3R)-2-((R)-4-((3R,5R,8R,9S,10S,12S,13R,14S,17R)-3,12-dihydroxy-10,13-dimethyl-hexadecahydro-1H-cyclopenta[a]phenanthren-17-yl)pentanamido)-3-methylpentanoic acid] |  | relatively excellent | 
4 | CC(C)[C@H](NC(=O)CC[C@@H](C)[C@H]1CC[C@H]2[C@@H]3[C@@H](O)C[C@@H]4C[C@H](O)CC[C@]4(C)[C@H]3CC[C@]12C)C(=O)O [Example 3, (S)-2-((R)-4-((3R,5S,7S,8R,9S,10S,13R,14S,17R)-3,7-dihydroxy-10,13-dimethyl-hexadecahydro-1H-cyclopenta[a]phenanthren-17-yl)pentanamido)-3-methylbutanoic acid] |  | relatively excellent | 
5 | CC[C@@H](C)[C@H](NC(=O)CC[C@@H](C)[C@H]1CC[C@H]2[C@@H]3CC[C@@H]4C[C@H](O)CC[C@]4(C)[C@H]3CC[C@]12C)C(=O)O [Example 1, (2S,3R)-2-((R)-4-((3R,5R,8R,9S,10S,13R,14S,17R)-3-hydroxy-10,13-dimethyl-hexadecahydro-1H-cyclopenta[a]phenanthren-17-yl)pentanamido)-3-methylpentanoic acid] | concentration dependent | relatively excellent | low and lower
